According to patent US6683103B2, “Sulfonamides for treatment of endothelin-mediated disorders” (Texas Biotechnology Corporation, priority 1997, dated 2004):
Where two headings read alike, the source gives them in different places. Each block holds one molecule with its values, some of them ahead of it.

Columns and labels:
human ETA receptors = target: T1, human ETA receptors (Homo sapiens, UniProt P25101); assay: Binding Test #1: inhibition of 125I-ET-1 binding to ETA receptors (TE 671 cell membranes); conditions: for IC50: read-out: ETA
T1 construct: endogenous in cells; host or cells: TE 671 cells (ATCC HTB 139)
T1 sequence (P25101 21-427): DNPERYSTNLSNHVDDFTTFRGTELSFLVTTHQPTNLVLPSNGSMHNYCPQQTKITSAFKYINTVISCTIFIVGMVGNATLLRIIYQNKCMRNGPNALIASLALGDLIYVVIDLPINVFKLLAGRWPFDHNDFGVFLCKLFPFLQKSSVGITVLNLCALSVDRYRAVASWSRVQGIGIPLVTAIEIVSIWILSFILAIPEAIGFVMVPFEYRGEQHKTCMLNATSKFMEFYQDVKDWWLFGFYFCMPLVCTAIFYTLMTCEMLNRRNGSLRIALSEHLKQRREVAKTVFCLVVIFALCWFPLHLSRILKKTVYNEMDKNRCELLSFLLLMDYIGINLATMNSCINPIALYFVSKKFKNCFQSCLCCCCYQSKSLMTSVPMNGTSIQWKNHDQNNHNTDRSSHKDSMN
Outline: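 Membranes from TE 671 cells (up to 8 μg protein) incubated with ¹²⁵I-ET-1 and compound (1 nM–100 μM final) in 30 mM HEPES pH 7.4, 150 mM NaCl, 5 mM MgCl2, 0.5% bacitracin, 16–18 h at 4 °C or alternatively at 24 °C. Nonspecific binding with 80 nM ET-1; bound pellet gamma-counted, % inhibition calculated, usually triplicate.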

[1] = Oral half-life and peak plasma levels in rat; format: in vivo; conditions: for Peak Plasma Levels: in vivo; for POt½ in Rat: oral
From the text: As used herein, bioavailability refers to the rate and extent of absorption. Methods for determining bioavailability are well known to those of skill in the art. For example, bioavailability of any of the compounds described herein can be determined empirically by administration of the compound to an animal, followed by taking blood samples over time and measuring the blood concentration of the compound. In vivo half life (t½) is defined as the time it takes for the concentration of the compound in the blood to be reduced by one-half. Estimations of the area under the curve for intravenous administration can be used to estimate the area under the curve for oral administration, yielding bioavailability data. See, e.q., Milo Gibal (1991) Biopharmaceutics and Pharmacology, 4th edition (Lea and Sediger).
Table 4 lists oral half-life, bioavailability, and in vivo activity of selected exemplary compounds. The in vivo activity was measured in a pulmonary hypertension model and is a measure of the activity of the compounds at selected dosages.

human ETB receptor = target: T2, human ETB receptor (Homo sapiens, UniProt P24530); assay: Binding Test #2: inhibition of 125I-ET-1 binding to ETB receptors (transfected COS7 cell membranes); conditions: read-out: ETB
T2 construct: expressed in transfected cells; host or cells: COS7 cells
T2 sequence (P24530 27-442): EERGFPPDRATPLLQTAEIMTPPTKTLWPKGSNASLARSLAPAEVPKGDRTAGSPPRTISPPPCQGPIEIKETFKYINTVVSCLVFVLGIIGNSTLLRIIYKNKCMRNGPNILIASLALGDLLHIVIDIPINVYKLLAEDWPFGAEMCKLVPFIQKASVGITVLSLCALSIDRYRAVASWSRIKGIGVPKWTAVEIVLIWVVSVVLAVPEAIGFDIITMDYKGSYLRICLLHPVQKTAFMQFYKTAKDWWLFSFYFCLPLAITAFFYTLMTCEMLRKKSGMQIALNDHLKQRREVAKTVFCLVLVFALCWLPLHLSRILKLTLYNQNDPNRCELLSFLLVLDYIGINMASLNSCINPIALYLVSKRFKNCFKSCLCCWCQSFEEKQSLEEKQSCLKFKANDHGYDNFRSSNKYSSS
Outline: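 Competition with 125I-ET-1 for binding to membranes from COS7 cells transfected with human ETB receptor, used at 1 μg/50 μl binding buffer. Membranes prepared in HEPES pH 7.4 with aprotinin, including a DNase/MnCl2 step at 37 °C for 30 min.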

[2] = system: ET-1-induced pressor response; assay: ET-1-induced pressor responses in conscious, autonomically blocked rats; format: in vivo, rat; conditions: in 30 min at dosages as low as 30 mg/kg
Method: Animals were placed in a restrainer and allowed to regain consciousness. Thirty minutes later autonomic blockade was administered (atropine methyl nitrate, 3 mg/kg, IV, followed by propranalol, 2 mg/kg, IV). An hour later animals received a bolus injection of vehicle (0.5 ml) followed thirty minutes later by intravenous bolus administration of ET-1 (Control, 1 μg/kg). Following recovery from this challenge, test-compounds were administered by intravenous bolus administration (0.5 ml) and then re-challenged with ET-1 thirty minutes later. Results are expressed as the percent inhibition of the ET-1-induced pressor response after administration of the test compound compared to the pressor response induced by the control ET-1 challenge. In some cases a third ET-1 challenge was administered ninety minutes after administration of the test compound.

[3] = Table 3, † incubation at 24° C.
[4] = Table 1, † incubation at 24° C.
[5] = Table 2, † incubation at 24° C.

Molecule: Cc1cc(C)c(NC(=O)c2sccc2S(=O)(=O)Nc2onc(C)c2Cl)c(C(=O)C(C)C)c1 [3-(((4-chloro-3-methyl-5-isoxazolyl)amino)sulfonyl)-N-(2-isobutyryl-4,6-dimethylphenyl)-2-thiophenecarboxamide]
ETA/ETB selectivity (human ETA receptors; Table 3): 14000^∥
IC50 (human ETA receptors; [3]): 0.00111 µM
Peak Plasma Levels [1]: 59 µg/mL
POt½ in Rat [1]: 5.4 h

Molecule: Cc1noc(NS(=O)(=O)c2ccc(-c3ccon3)s2)c1Br [Example 10, N-(4-Bromo-3-methyl-5-isoxazolyl)-5-(3-isoxazolyl)thiophene-2-sulfonamide]
melting point: 120 to 123 °C

Molecule: Cc1noc(NS(=O)(=O)c2ccsc2C(N)=O)c1Br [N-(4-bromo-3-methyl-5-isoxazolyl)-2-(aminocarbonyl)thiophene-3-sulfonamide]
melting point: 168 to 170 °C

Molecule: Cc1noc(NS(=O)(=O)c2ccsc2C(=O)Nc2ccccc2O)c1Br [N-(4-bromo-3-methyl-5-isoxazolyl)-2-[(2-hydroxyphenyl)aminocarbonyl]thiophene-3-sulfonamide]
melting point: 42 to 44 °C

Molecule: Cc1noc(NS(=O)(=O)c2ccc(COCc3ccccc3)s2)c1Br [N-(4-bromo-3-methyl-5-isoxazolyl)-5-(benzyloxymethyl)thiophene-2-sulfonamide]
IC50 (human ETA receptors; [4]): 12 µM
IC50 (human ETB receptor; [4]): 9 µM
melting point: 92 °C

Molecule: Cc1cc(C)c(NC(=O)c2sccc2S(=O)(=O)Nc2onc(C)c2Cl)c(C)c1C#N [N-(4-chloro-3-methyl-5-isoxazolyl)-2-(3-cyano-2,4,6-trimethylphenylaminocarbonyl)thiophene-3-sulfonamide]
Peak Plasma Levels [1]: 20 µg/mL
POt½ in Rat [1]: 3.9 h

Molecule: Cc1cc(C)c(NC(=O)c2sccc2S(=O)(=O)Nc2onc(C)c2Cl)c(C)c1CO [N-(4-chloro-3-methyl-5-isoxazolyl)-2-(3-hydroxymethyl-2,4,6-trimethylphenylaminocarbonyl)thiophene-3-sulfonamide]
IC50 (human ETA receptors; [4]): 0.0004 µM
IC50 (human ETB receptor; [4]): ~80 µM
Peak Plasma Levels [1]: 3 µg/mL
POt½ in Rat [1]: 1.5 h

Molecule: Cc1cc(C)c(NS(C)(=O)=O)c(C)c1NC(=O)c1sccc1S(=O)(=O)Nc1onc(C)c1Cl [N-(4-chloro-3-methyl-5-isoxazolyl)-2-(3-methanesulfonylamino-2,4,6-trimethylphenylaminocarbonyl)thiophene-3-sulfonamide]
Peak Plasma Levels [1]: 2.6 µg/mL
POt½ in Rat [1]: 5.9 h

Molecule: COc1ccc(NC(=O)c2sccc2S(=O)(=O)Nc2onc(C)c2Cl)c(C)c1 [N-(4-chloro-3-methyl-5-isoxazolyl)-2-[4-methoxy-2-methylphenyl)aminocarbonyl]thiophene-3-sulfonamide]
reduction of pressure [2]: about 30%

Molecule: N-(3,4-dimethyl-5-isoxazolyl)-2-(4-tolylacetylphenyl)thiophene-3-sulfonamide
IC50 (human ETA receptors; [4]): 0.0027 µM
IC50 (human ETB receptor; [4]): 29.2 µM

Molecule: N-(4-bromo-3-methyl-5-isoxazolyl)-2′-methoxyphenyl-4-biphenylsulfonamide
IC50 (human ETA receptors; Table 2, incubation at 4° C.): 3.3 ± 3.5 µM
IC50 (human ETB receptor; Table 2, incubation at 4° C.): 0.41 ± 0.14 µM

Molecule: N-(4-bromo-3-methyl-5-isoxazolyl)-4′-methoxyphenyl-4-biphenylsulfonamide
IC50 (human ETA receptors; Table 2, incubation at 4° C.): 14.7 ± 5.6 µM
IC50 (human ETA receptors; [5]): 122 ± 2.12 µM
IC50 (human ETB receptor; Table 2, incubation at 4° C.): 1.15 ± 0.44 µM

Molecule: N-(4-bromo-3-methyl-5-isoxazolyl)-4′-trifluorophenyl-4-biphenylsulfonamide
IC50 (human ETA receptors; Table 2, incubation at 4° C.): 5.4 ± 0.3 µM
IC50 (human ETA receptors; [5]): 25.9 ± 13.7 µM
IC50 (human ETB receptor; Table 2, incubation at 4° C.): 0.083 ± 0.02 µM
IC50 (human ETB receptor; [5]): 0.71 ± 0.43 µM

Molecule: N-(4-chloro-3-methyl-5-isoxazolyl)-2-[2-hyroxyproyl-4,5-(methylenedioxy)phenylaminocarbonyl]thiophene-3-sulfonamide
IC50 (human ETA receptors; [4]): 0.0073 µM
IC50 (human ETB receptor; [4]): 8.3 µM

Molecule: N-(4-chloro-3-methyl-5-isoxazolyl)-2-[β-(dimethylamino)-3,4-(methylenedioxy)phenethyl]thiophene-3-sulfonamide
IC50 (human ETA receptors; [4]): 20.9 µM
IC50 (human ETB receptor; [4]): ~100 µM

Molecule: N-(4-chloro-3-methyl-5-isoxazolyl)-2-[β-acetoxy-2-methyl-4,5-(methylenedioxy)styryl]thiophene-3-sulfonamide
IC50 (human ETA receptors; Table 1, incubation at 4° C.): 0.00544 µM
IC50 (human ETB receptor; [4]): 3.74 µM

Molecule: N-(4-chloro-3-methyl-5-isoxazolyl)-2-phenylbenzo[b]thiophene sulfonamide
IC50 (human ETA receptors; [4]): 0.932 µM
IC50 (human ETB receptor; [4]): 46.8 µM

The next lines start with the values.

ETA/ETB selectivity (human ETA receptors; Table 3): 45000^∥
IC50 (human ETA receptors; [3]): 0.00036 µM
Peak Plasma Levels [1]: 53 µg/mL
POt½ in Rat [1]: 5.5 h
Molecule: Cc1cc(C)c(NC(=O)c2sccc2S(=O)(=O)Nc2onc(C)c2Cl)c(C(=O)C2CC2)c1 [3-(((4-chloro-3-methyl-5-isoxazolyl)amino)sulfonyl)-N-(2-(cyclopropylcarbonyl)-4,6-dimethylphenyl)-2-thiophenecarboxamide]

melting point: 75 to 78 °C
Molecule: Cc1cc(C)c(N(C(=O)c2sccc2S(N)(=O)=O)c2onc(C)c2Cl)c(C)c1O [Example 52, N^2-(4-Chloro-3-methyl-5-isoxazolyl)-N-(3-hydroxy-2,4,6-trimethylphenyl)-3-sulfamoyl-2-thiophenecarboxamide]

melting point: 128 to 130 °C
Molecule: Cc1ccc(OCc2sccc2S(=O)(=O)Nc2onc(C)c2Br)cc1 [N-(4-bromo-3-methyl-5-isoxazolyl)-2-[(4-methylphenoxy)methyl]thiophene-3-sulfonamide]

IC50 (human ETA receptors; [4]): 0.0006 µM
IC50 (human ETB receptor; [4]): ~45 µM
Peak Plasma Levels [1]: 40.2 µg/mL
POt½ in Rat [1]: 3.4 h
Molecule: Cc1cc(C)c(NC(=O)c2sccc2S(=O)(=O)Nc2onc(C)c2Cl)c(C)c1CC#N [N-(4-chloro-3-methyl-5-isoxazolyl)-2-(3-cyanomethyl-2,4,6-trimethylphenylaminocarbonyl)thiophene-3-sulfonamide]

IC50 (human ETA receptors; [4]): 5.29 µM
IC50 (human ETB receptor; [4]): 18.6 µM
Molecule: N-(4-bromo-3-methyl-5-isoxazolyl)-1-[3,4-(methylenedioxy)benzyl]indole-2-sulfonamide

IC50 (human ETA receptors; [5]): 38.2 ± 4.95 µM
IC50 (human ETB receptor; [5]): 3 ± 0.78 µM
Molecule: N-(4-bromo-3-methyl-5-isoxazolyl)-3′,4′-methylenedioxyphenyl-4-biphenylsulfonamide

IC50 (human ETA receptors; Table 2, incubation at 4° C.): 4.97 ± 3.4 µM
IC50 (human ETA receptors; [5]): 163 ± 7.14 µM
IC50 (human ETB receptor; Table 2, incubation at 4° C.): 0.66 ± 0.25 µM
IC50 (human ETB receptor; [5]): 2.08 ± 0.23 µM
Molecule: N-(4-bromo-3-methyl-5-isoxazolyl)-3′-methoxyphenyl-4-biphenylsulfonamide

IC50 (human ETA receptors; Table 2, incubation at 4° C.): 14.5 ± 9.6 µM
IC50 (human ETA receptors; [5]): 22.2 ± 3.77 µM
IC50 (human ETB receptor; Table 2, incubation at 4° C.): 0.046 ± 0.044 µM
IC50 (human ETB receptor; [5]): 0.168 ± 0.0032 µM
Molecule: N-(4-bromo-3-methyl-5-isoxazolyl)-4′-methylphenyl-4-biphenylsulfonamide

IC50 (human ETA receptors; Table 1, incubation at 4° C.): 7.1 µM
IC50 (human ETA receptors; [4]): 15.8 µM
IC50 (human ETB receptor; Table 1, incubation at 4° C.): 0.359 µM
IC50 (human ETB receptor; [4]): 0.25 µM
Molecule: N-(4-bromo-5-methyl-3-isoxazolyl)-5-(4-methylphenyl)thiophene-2-sulfonamide

IC50 (human ETA receptors; [4]): 0.794 µM
IC50 (human ETB receptor; [4]): 6.49 µM
Molecule: N-(4-chloro-3-methyl-5-isoxazolyl)-2-[2-methyl-4,5-(methylenedioxy)phenylhydroxyimino]thiophene-3-sulfonamide
